Test results as given in patent publication US20260250320A1, “LIPIDATED PEPTIDE INHIBITORS OF INTERLEUKIN-23 RECEPTOR” (Janssen Pharmaceutica NV, priority 2023, published 2026).
*1 amine or outer side, *2 acyl side, *3 side chain or, on linkers, in order; H or OH if unused. Where a SMILES comes first, the peptide text is derived from it. Bridges are numbered along the chain shown (N, C = ends). Side-chain parts run from the residue outwards. [ ]: non-standard residue; d: D form. The star is where a group is joined. X36 = C[N+](C)(C)CCOCCOCCC(=O)C[C@H](CCCCCC(=O)COCCOCCNC(=O)COCCOCCNC(=O)CC[C@H](NC(=O)CCCCCCCCCCCCCCCCC(=O)O)C(=O)O)C(=O)*; Me3N+(CH2)2O(CH2)2O(CH2)2CO = C[N+](C)(C)CCOCCOCCC(=O)*; NH(CH2CH2O)2CH2CH2NMe3+ = C[N+](C)(C)CCOCCOCCN*; Trp(7-Me) = Cc1cccc2c(C[C@H](N)C(=O)O)c[nH]c12; C18 diacid = O=C(O)CCCCCCCCCCCCCCCCC(=O)*; X6 = CN(CC[C@H](N[*:1])C(=O)[*:2])[*:3]; γGlu = O=C(O)[C@H](CCC(=O)[*:2])N[*:1]; 2Nal = N[C@@H](Cc1ccc2ccccc2c1)C(=O)O; AEF = NCCOc1ccc(C[C@H](N)C(=O)O)cc1; X2 = C[N+](C)(C)C[C@@H](CC(=O)O)N*; 3Pal = N[C@@H](Cc1cccnc1)C(=O)O; Lys(Me) = CNCCCC[C@H](N)C(=O)O; NMeK = CN[C@@H](CCCCN)C(=O)O; Pen = CC(C)(S)[C@H](N)C(=O)O; Suc = O=C(CCC(=O)[*:2])[*:1]; Thp = NC1(C(=O)O)CCOCC1; X1 = C[N+](C)(C)CCCCC*; AEEA = NCCOCCOCC(=O)O; Sar = CNCC(=O)O

Tests used:
IL-23R = molecular target: T1, IL-23R (Homo sapiens, UniProt Q5VWK5); assay: IL23R Reporter Assay; assay type: cell-based; conditions: HEK293 cells containing IL-23R, IL-12Rβ1 and STAT-inducible firefly luciferase reporter; 10 ng/mL IL-23 (EC90); 5 h
T1 construct: HEK293 cells containing IL-23R, IL-12Rβ1 and a firefly luciferase reporter gene driven by a STAT-inducible promoter (Promega); host or cells: HEK293
T1 sequence (Q5VWK5 24-629): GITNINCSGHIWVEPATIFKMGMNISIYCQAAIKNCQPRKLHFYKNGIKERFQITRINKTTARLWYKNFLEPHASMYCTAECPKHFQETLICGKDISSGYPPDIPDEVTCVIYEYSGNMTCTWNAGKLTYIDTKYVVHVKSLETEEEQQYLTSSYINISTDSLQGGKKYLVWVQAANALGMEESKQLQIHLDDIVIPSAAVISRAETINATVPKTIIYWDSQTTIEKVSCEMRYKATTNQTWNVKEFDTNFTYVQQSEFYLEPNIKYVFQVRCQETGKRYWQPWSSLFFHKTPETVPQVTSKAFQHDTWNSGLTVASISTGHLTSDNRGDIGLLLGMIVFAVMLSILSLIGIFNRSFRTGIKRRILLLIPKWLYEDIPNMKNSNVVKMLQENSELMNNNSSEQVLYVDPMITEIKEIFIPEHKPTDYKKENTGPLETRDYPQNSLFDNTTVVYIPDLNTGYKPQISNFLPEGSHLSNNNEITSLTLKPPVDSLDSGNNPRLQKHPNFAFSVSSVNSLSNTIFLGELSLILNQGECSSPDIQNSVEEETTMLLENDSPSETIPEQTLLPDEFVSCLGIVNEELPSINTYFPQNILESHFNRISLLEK
How it was run: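 HEK293 cells carrying IL-23R, IL-12Rβ1 and a STAT-driven firefly luciferase reporter (4000 cells/well) received compound, then 10 ng/mL IL-23 solution (EC90), and were incubated for 5 h at 37° C. BioGlo luminescence was normalised to IL-23 alone (0%) and 30 μM control inhibitor (100%). IC50 came from a 4-parameter Hill fit.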

[1] = system: IL-23-stimulated phosphorylated STAT3 in peripheral blood mononuclear cells (PBMCs); assay: PBMC pSTAT3 Assay; assay type: cell-based; conditions: PBMCs from healthy donors; 30 min preincubation with peptide; IL-23 5 ng/mL for 30 min; phospho-STAT3 by MSD
How it was run: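 Healthy-donor PBMCs expanded 4 days on anti-CD3 with 100 ng/mL IL-1β, starved ~4 h in RPMI-0.1% BSA, preincubated 30 min with peptide, then stimulated 30 min at 37 °C with 5 ng/mL IL-23. Lysate pSTAT3 measured by MSD phospho-STAT panel; IC50 derived.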

Row | Structure (SMILES) | IC50 (IL-23R) [nM] | IC50 [1] [nM]
1 | CC(=O)NCCCC[C@@H]1NC(=O)[C@H](Cc2c[nH]c3c(C)cccc23)NC(=O)[C@H]([C@@H](C)O)NC(=O)[C@H](CCCCNC(=O)CCC(=O)N[C@H](CC(=O)O)C[N+](C)(C)C)NC(=O)[C@@H](NC(=O)[C@@H](CCCNC(=N)N)NC(C)=O)C(C)(C)SSC(C)(C)[C@@H](C(=O)N[C@@H](Cc2ccc(OCCN)cc2)C(=O)N[C@@H](Cc2ccc3ccccc3c2)C(=O)NC2(C(=O)N[C@@H](CCC(=O)O)C(=O)N[C@@H](CC(N)=O)C(=O)N[C@@H](Cc3cccnc3)C(=O)N(C)CC(=O)N[C@@H](CCCCNC(=O)COCCOCCNC(=O)COCCOCCNC(=O)CC[C@H](NC(=O)CCCCCCCCCCCCCCCCC(=O)O)C(=O)O)C(N)=O)CCOCC2)NC1=O [compound 53, MeCO-r-Pen(3)-K(d)-T-7MeW-K(Ac)-Pen(3)-AEF-2Nal-THP-E-N-3Pya-Sar-K(PEG2PEG2gEC18OH)-CONH2] (Ac-[dR][Pen]K([Suc-X2])T[Trp(7-Me)]K(Ac)[Pen][AEF][2Nal][Thp]EN[3Pal][Sar]K([AEEA-AEEA-γGlu-C18 diacid])-NH2; disulfide 2-7) | 50 to 500 | < 0.5
2 | CC(=O)NCCCC[C@@H]1NC(=O)[C@H](Cc2c[nH]c3c(C)cccc23)NC(=O)[C@H]([C@@H](C)O)NC(=O)[C@H](CC(N)=O)NC(=O)[C@@H](NC(=O)[C@@H](CCCNC(=N)N)NC(C)=O)C(C)(C)SSC(C)(C)[C@@H](C(=O)N[C@@H](Cc2ccc(OCCN)cc2)C(=O)N[C@@H](Cc2ccc3ccccc3c2)C(=O)NC2(C(=O)N[C@@H](CCCCNC(=O)COCCOCCNC(=O)COCCOCCNC(=O)CC[C@H](NC(=O)CCCCCCCCCCCCCCCCC(=O)O)C(=O)O)C(=O)N[C@@H](CC(N)=O)C(=O)N[C@@H](Cc3cccnc3)C(=O)N(C)[C@@H](CCCCNC(=O)CCC(=O)N[C@H](CC(=O)O)C[N+](C)(C)C)C(N)=O)CCOCC2)NC1=O [compound 21, MeCO-r-Pen(3)-N-T-7MeW-K(Ac)-Pen(3)-AEF-2Nal-THP-K(PEG2PEG2gEC18OH)-N-3Pya-NMeK(d)-CONH2] (Ac-[dR][Pen]NT[Trp(7-Me)]K(Ac)[Pen][AEF][2Nal][Thp]K([AEEA-AEEA-γGlu-C18 diacid])N[3Pal][NMeK]([Suc-X2])-NH2; disulfide 2-7) | < 50 | < 0.5
3 | CC(=O)NCCCC[C@@H]1NC(=O)[C@H](Cc2c[nH]c3c(C)cccc23)NC(=O)[C@H]([C@@H](C)O)NC(=O)[C@H](CC(N)=O)NC(=O)[C@@H](NC(=O)C(CCCNC(=N)N)CC(=O)COCCOCCNC(=O)COCCOCCNC(=O)CC[C@H](NC(=O)CCCCCCCCCCCCCCCCC(=O)O)C(=O)O)C(C)(C)SSC(C)(C)[C@@H](C(=O)N[C@@H](Cc2ccc(OCCN)cc2)C(=O)N[C@@H](Cc2ccc3ccccc3c2)C(=O)NC2(C(=O)N[C@@H](CCC(=O)O)C(=O)N[C@@H](CC(N)=O)C(=O)N[C@@H](Cc3cccnc3)C(=O)N(C)[C@@H](CCCCNC(=O)CCC(=O)N[C@H](CC(=O)O)C[N+](C)(C)C)C(N)=O)CCOCC2)NC1=O (stereo partly shown) [compound 43, HOC18gEPEG2PEG2CO-r-Pen(3)-N-T-7MeW-K(Ac)-Pen(3)-AEF-2Nal-THP-E-N-3Pya-NMeK(d)-CONH2] | < 50 | < 0.5

Second part, led by results:

Row | IC50 (IL-23R) [nM] | Structure (SMILES) | IC50 [1] [nM]
4 | < 50 | Cc1cccc2c(C[C@@H]3NC(=O)[C@H]([C@@H](C)O)NC(=O)[C@H](CC(=O)N(C)C)NC(=O)[C@@H](NC(=O)COCCOCCNC(=O)COCCOCCNC(=O)CC[C@H](NC(=O)CCCCCCCCCCCCCCCCC(=O)O)C(=O)O)C(C)(C)SSC[C@@H](C(=O)N[C@@H](Cc4ccc(OCCN)cc4)C(=O)N[C@@H](Cc4ccc5ccccc5c4)C(=O)NC4(C(=O)N[C@@H](CCN(C)C(=O)CCC(=O)N[C@H](CC(=O)O)C[N+](C)(C)C)C(=O)N[C@@H](CC(N)=O)C(=O)N[C@@H](Cc5cccnc5)C(=O)N(C)CC(=O)N(C)C)CCOCC4)NC(=O)[C@H](CCN(C)C(=O)CCC(=O)N[C@H](CC(=O)O)C[N+](C)(C)C)NC3=O)c[nH]c12 [compound 138, HOC18gEPEG2PEG2CO-Pen(3)-N(N(Me)2)-T-7MeW-Dab(NMecarn)-Pen(3)-AEF-2Nal-THP-Dab(NMecarn)-N-3Pya-Sar-CON(Me)2] ({C18 diacid-γGlu-AEEA-AEEA}-[Pen]D(NMe2)T[Trp(7-Me)][X6]([Suc-X2])C[AEF][2Nal][Thp][X6]([Suc-X2])N[3Pal][Sar]-NMe2; disulfide 1-6) | < 0.5
5 | ≥ 500 | CC(=O)NCCCC[C@@H]1NC(=O)[C@H](Cc2c[nH]c3c(C)cccc23)NC(=O)[C@H]([C@@H](C)O)NC(=O)[C@H](CCCCNC(=O)COCCOCCNC(=O)COCCOCCNC(=O)CC[C@H](NC(=O)CCCCCCCCCCCCCCCCC(=O)O)C(=O)O)NC(=O)[C@@H](NC(=O)[C@@H](CCCNC(=N)N)NC(C)=O)C(C)(C)SSC(C)(C)[C@@H](C(=O)N[C@@H](Cc2ccc(OCCN)cc2)C(=O)N[C@@H](Cc2ccc3ccccc3c2)C(=O)NC2(C(=O)N[C@@H](CCC(=O)O)C(=O)N[C@@H](CC(N)=O)C(=O)N[C@@H](Cc3cccnc3)C(=O)N(C)CC(=O)NCCOCCOCC[N+](C)(C)C)CCOCC2)NC1=O [compound 66, MeCO-r-Pen(3)-K(PEG2PEG2gEC18OH)-T-7MeW-K(Ac)-Pen(3)-AEF-2Nal-THP-E-N-3Pya-Sar-CONH(PEG3a)] (Ac-[dR][Pen]K([AEEA-AEEA-γGlu-C18 diacid])T[Trp(7-Me)]K(Ac)[Pen][AEF][2Nal][Thp]EN[3Pal][Sar]-{NH(CH2CH2O)2CH2CH2NMe3+}; disulfide 2-7) | 0.5 to 5
6 | < 50 | CC(=O)N(C)CCCC[C@@H]1NC(=O)[C@H](Cc2c[nH]c3c(C)cccc23)NC(=O)[C@H]([C@@H](C)O)NC(=O)[C@H](CC(=O)N(C)C)NC(=O)[C@@H](NC(=O)[C@@H](CCCCCC(=O)COCCOCCNC(=O)COCCOCCNC(=O)CC[C@H](NC(=O)CCCCCCCCCCCCCCCCC(=O)O)C(=O)O)CC(=O)CCOCCOCC[N+](C)(C)C)C(C)(C)SSC(C)(C)[C@@H](C(=O)N[C@@H](Cc2ccc(OCCCCC[N+](C)(C)C)cc2)C(=O)N[C@@H](Cc2ccc3ccccc3c2)C(=O)NC2(C(=O)N[C@@H](CCCCN(C)C(C)=O)C(=O)N[C@@H](CC(N)=O)C(=O)N[C@@H](Cc3cccnc3)C(=O)N(C)CC(=O)N(C)C)CCOCC2)NC1=O [compound 131, cPEG3aCO-k(PEG2PEG2gEC18OH)-Pen(3)-N(N(Me)2)-T-7MeW-K(NMeAc)-Pen(3)-TMAPF-2Nal-THP-K(NMeAc)-N-3Pya-Sar-CON(Me)2] (X36-[Pen]D(NMe2)T[Trp(7-Me)][Lys(Me)](Ac)[Pen]Y(X1)[2Nal][Thp][Lys(Me)](Ac)N[3Pal][Sar]-NMe2; disulfide 1-6) | < 0.5
7 | 50 to 500 | CC(=O)NCCCC[C@@H]1NC(=O)[C@H](Cc2c[nH]c3c(C)cccc23)NC(=O)[C@H]([C@@H](C)O)NC(=O)[C@H](CCCCNC(=O)COCCOCCNC(=O)COCCOCCNC(=O)CC[C@H](NC(=O)CCCCCCCCCCCCCCCCC(=O)O)C(=O)O)NC(=O)[C@@H](NC(=O)[C@@H](CCCNC(=N)N)NC(=O)CCOCCOCC[N+](C)(C)C)C(C)(C)SSC(C)(C)[C@@H](C(=O)N[C@@H](Cc2ccc(OCCN)cc2)C(=O)N[C@@H](Cc2ccc3ccccc3c2)C(=O)NC2(C(=O)N[C@@H](CCC(=O)O)C(=O)N[C@@H](CC(N)=O)C(=O)N[C@@H](Cc3cccnc3)C(=O)N(C)CC(N)=O)CCOCC2)NC1=O [compound 55, cPEG3aCO-r-Pen(3)-K(PEG2PEG2gEC18OH)-T-7MeW-K(Ac)-Pen(3)-AEF-2Nal-THP-E-N-3Pya-Sar-CONH2] ({Me3N+(CH2)2O(CH2)2O(CH2)2CO}-[dR][Pen]K([AEEA-AEEA-γGlu-C18 diacid])T[Trp(7-Me)]K(Ac)[Pen][AEF][2Nal][Thp]EN[3Pal][Sar]-NH2; disulfide 2-7) | < 0.5
8 | 50 to 500 | C=C(O)CCCCCCCCCCCCCCCCC(=O)N[C@@H](CCC(=O)NCCOCCOCC(=O)NCCCCCOCC(=O)NCCCC[C@@H]1NC(=O)[C@@H](NC(=O)CCOCCOCC[N+](C)(C)C)CCCC[C@@H](C(=O)N[C@@H](Cc2ccc(OCCOCCOCC[N+](C)(C)C)cc2)C(=O)N[C@@H](Cc2ccc3ccccc3c2)C(=O)NC2(C(=O)N[C@@H](CCCCN(C)C(C)=O)C(=O)N[C@@H](CC(N)=O)C(=O)N[C@@H](Cc3cccnc3)C(=O)N(C)CC(=O)N(C)C)CCCCC2)NC(=O)[C@H](CCCCN(C)C(C)=O)NC(=O)[C@H](Cc2c[nH]c3c(C)cccc23)NC(=O)[C@H]([C@@H](C)O)NC1=O)C(=O)O [compound 158, cPEG3aCO-Pen(3)-K(PEG2PEG2gEC18OH)-T-7MeW-K(NMeAc)-Pen(3)-APEG3F-2Nal-THP-K(NMeAc)-N-3Pya-Sar-CON(Me)2] | 0.5 to 5
